Test results published in patent US20080200439A1, “Methods and compositions for modulating BK channel activity and vasodilation” (University of Tennessee Research Foundation, priority 2006, published 2008).

Legend:
[1] = test system: pressurized resistance cerebral arteries; assay: Artery diameter measurement, pressurized rat middle cerebral arteries; details: 0.8 mM
Procedure: Artery Diameter Measurement. Middle cerebral arteries were isolated from adult male Sprague-Dawley rats (=250 g) or 8- to 12-week-old β1-knockout and C57BL/6 control mice. Rats and mice were decapitated using a guillotine and sharp scissors, respectively. These procedures were approved by the Institutional Animal Care and Use Committee from The University of Tennessee Health Science Center, an AMLAC-accredited institution. Pressurization of arteries was performed as described (Liu et al., 2004). Endothelium was removed by passing an air bubble into the vessel lumen for 90 sec. Diameter changes were monitored through an inverted microscope (Nikon Eclipse TS100, Nikon Corp., Tokyo, Japan), recorded on camera (Sanyo VCB-3512T, Sanyo Electric Corp., Japan), and transferred to a computer. Diameter data were acquired and analyzed using IonWizard 4.4 software (IonOptics Corp., Milton, Mass., United States of America).
Pressurized arteries were extraluminally perfused with physiological saline solution (PSS) (Liu et al., 2004) at a constant rate of 3.75 ml/min using a peristaltic pump Dynamax RP-1 (Rainin Instrument, Inc., Oakland, Calif., United States of America). At this rate, complete washout of the iberiotoxin (Ibtx) effect required >45 min. To keep basal tone under steady behavior, we shortened this period by increasing flow rate ˜3 times during washout of Ibtx, which sometimes evoked a flow-induced dilation (FIG. 1A). Equal volumes (25 ml) of vehicle- vs. LC-containing solutions were applied at equal, constant rate (see above) to the pressurized arterial segment in the chamber via a gravity system. Drugs were dissolved to make stock solutions (see Chemicals) and diluted in PSS to final concentration.
Chemicals. All chemicals were purchased from Sigma (St. Louis, Mo., United States of America), with the exception of 5β-cholanic acid 3α-ol (LC) (Steraloids, Inc., Newport, R.I., United States of America) and Ibtx (Alomone Labs Ltd., Jerusalem, Israel). On the day of the experiment, an LC stock solution (333 mM) in dimethyl sulfoxide (DMSO) was freshly prepared by sonication for 5 min. For arterial tone experiments, the LC stock was diluted 1/10 in DMSO and further diluted in PSS to render final LC concentration. Solution containing vehicle (0.1% DMSO; V/V) was used as control perfusion. For electrophysiological recordings, the LC stock solution was diluted 1/10 in 95% ethanol and further diluted with bath solution to render final LC concentration (3-1,000 μM). The DMSO/ethanol vehicle (≦0.1/≦0.86% final concentrations) in bath solution was used as control.
Data Analysis. Artery diameter response to each compound is shown as a percentage of the diameter obtained before compound application. Arterial diameter and electrophysiological data were analyzed with IonWizard 4.4 (IonOptics Corp., Milton, Mass., United States of America) and pCLAMP 8.0 (Molecular Devices, Union City, Calif., United States of America). Further analysis, plotting, and fitting were conducted using Origin 7.0 (Originlab Corp., Northampton, Mass., United States of America) and InStat 3.0 (GraphPad Software Inc., San Diego, Calif., United States of America).
After myogenic tone development at 60 mm Hg, intact arteries reached a diameter of 154.4±5.2 μm (n=17). Maximal contraction and dilation were checked by perfusing the vessel with 60 mM KCl at the beginning, and Ca^2+-free solution at the end of each experiment (FIGS. 1A & 1B). In all cases (n=17), application of 45 μM LC, that is, concentrations well below LC's critical micellar concentration (CMC) (≧1 mM under our recording conditions) (Roda et al., 1995) caused a significant increase in peak arterial diameter: +6% on top of a transient increase in diameter caused by vehicle-containing solution (FIGS. 1A-1C). […]

BK channels = details: cited from earlier work
cbv1+β1 channels = cbv1+β1 channels (UniProt Q16558+Q62976); assay: Patch-clamp of heteromeric cbv1+β1 channels expressed in Xenopus oocytes; format: cell-based, rat; details: 10 μM; bath application to extracellular surface of O/O patches
Sequence of cbv1+β1 channels (Q62976 1-1148 isoform Q62976-2): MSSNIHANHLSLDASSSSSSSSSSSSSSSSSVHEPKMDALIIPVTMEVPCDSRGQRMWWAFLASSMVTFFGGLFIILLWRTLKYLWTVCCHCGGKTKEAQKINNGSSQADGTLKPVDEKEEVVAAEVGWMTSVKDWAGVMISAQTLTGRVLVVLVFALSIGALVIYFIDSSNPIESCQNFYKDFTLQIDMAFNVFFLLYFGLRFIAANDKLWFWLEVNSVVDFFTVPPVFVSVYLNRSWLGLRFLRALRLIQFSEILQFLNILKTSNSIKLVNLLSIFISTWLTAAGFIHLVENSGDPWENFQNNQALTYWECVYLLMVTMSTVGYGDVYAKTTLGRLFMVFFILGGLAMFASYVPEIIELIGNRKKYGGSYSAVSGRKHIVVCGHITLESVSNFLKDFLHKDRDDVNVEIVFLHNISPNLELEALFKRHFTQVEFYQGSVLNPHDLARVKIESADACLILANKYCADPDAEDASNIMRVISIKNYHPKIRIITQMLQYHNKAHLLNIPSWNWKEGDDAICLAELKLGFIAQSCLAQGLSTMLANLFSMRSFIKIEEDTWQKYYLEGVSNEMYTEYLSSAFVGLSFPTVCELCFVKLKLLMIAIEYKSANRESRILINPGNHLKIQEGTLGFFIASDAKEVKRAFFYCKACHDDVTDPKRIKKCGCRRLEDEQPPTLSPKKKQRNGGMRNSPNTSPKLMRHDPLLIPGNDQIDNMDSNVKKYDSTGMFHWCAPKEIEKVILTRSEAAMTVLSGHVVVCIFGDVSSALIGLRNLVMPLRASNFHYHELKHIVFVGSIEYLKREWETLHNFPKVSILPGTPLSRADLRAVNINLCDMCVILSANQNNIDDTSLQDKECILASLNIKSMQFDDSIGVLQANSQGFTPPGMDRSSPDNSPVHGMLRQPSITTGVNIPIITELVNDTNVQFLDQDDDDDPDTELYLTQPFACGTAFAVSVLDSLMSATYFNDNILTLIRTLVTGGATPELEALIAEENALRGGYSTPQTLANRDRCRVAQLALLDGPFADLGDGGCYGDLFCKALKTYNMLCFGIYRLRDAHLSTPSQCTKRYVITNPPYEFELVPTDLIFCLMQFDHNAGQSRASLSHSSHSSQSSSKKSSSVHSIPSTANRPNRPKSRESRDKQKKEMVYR
Sequence of cbv1+β1 channels (Q16558 whole entry): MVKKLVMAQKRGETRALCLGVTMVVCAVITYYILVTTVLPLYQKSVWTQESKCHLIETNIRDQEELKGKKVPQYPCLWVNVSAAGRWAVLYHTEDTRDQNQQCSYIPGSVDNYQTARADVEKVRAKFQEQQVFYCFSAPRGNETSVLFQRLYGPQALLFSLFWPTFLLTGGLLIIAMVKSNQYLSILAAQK
Excerpt: cRNA Preparation and Injection into Xenopus Oocytes. Full-length cDNA coding for cbv1-subunits was cloned from rat cerebral artery myocytes by PCR and ligated to the PCR-XL-TOPO cloning vector (Invitrogen Corp., Carlsbad, Calif., United States of America) (Jaggar et al., 2005). cDNA coding for cbv1-subunits was cleaved from the cloning vector by BamHI (Invitrogen Corp., Carlsbad, Calif., United States of America) and XhoI (Promega, Madison, Wis., United States of America) and directly inserted into the pOX vector for expression in Xenopus oocytes. pOX-cbv1 was linearized with NotI (Promega, Madison, Wis., United States of America) and transcribed in vitro using T3 polymerase. Beta,-subunit cDNA inserted into the EcoR I/Sal I sites of the pCl-neo expression vector was linearized with NotI and transcribed in vitro using T7 polymerase. Beta4-subunit cDNA inserted into the pOx vector was linearized by NotI and transcribed using T3 polymerase. The mMessage-mMachine kit (Ambion Inc., Austin, Tex., United States of America) was used for transcription. The pOX vector and the cDNA coding for β1-subunits were generous gifts from Aguan Wei (Washington University, Saint Louis, Mo., United States of America) and Maria Garcia (Merck Research Laboratories, Whitehouse Station, N.J., United States of America).
Oocytes were removed from Xenopus laevis and prepared as described (Dopico et al., 1998). cRNA was dissolved in […] at 5 (cbv1) and 15 (β1 or β4) ng/μl; 1-μl aliquots were stored at −70° C. Cbv1 cRNA was injected alone (2.5 ng/μp) or coinjected with either β1 or β4 (7.5 ng/μl) cRNAs, giving molar ratios ≧6:1 (β:α). cRNA injection (23 nl/oocyte) was conducted using a modified micropipette (Drummond Scientific Co., Broomall, Pa., United States of America). The interval between injection and patch-clamp recordings was 48-72 h.
Electrophysiology. Oocytes were prepared for patch-clamp recordings as described (Dopico et al., 1998). Single-channel and macroscopic currents were recorded from inside-out (I/O) or outside-out (O/O) patches. For experiments with oocytes, both bath and electrode solutions contained (mM) 135 K^+ gluconate, 5 EGTA, 1 MgCl2, 15 HEPES, 10 glucose, pH 7.35. For experiments with myocytes, KCl substituted for K^+ gluconate. In all experiments, free Ca^2+ in solution was adjusted to the desired value by adding CaCl2. In most studies, free Ca^2+ in electrode solution=10 μM. In O/O studies with 17β-estradiol, however, free Ca^2+ in the electrode solution=0.3 μM. Nominal free Ca^2+ was calculated with MaxChelator Sliders (C. Patton, Stanford University, California, United States of America) and validated experimentally using Ca^2+-selective electrodes (Corning Incorporated Science Products Division, Corning, N.Y., United States of America).
Patch-recording electrodes were made as described (Dopico et al., 1998). Immediately before recording, the tip of each electrode was fire-polished on a microforge WPI MF-200 (World Precision Instruments, Inc., Sarasota, Fla., United States of America) to give resistances of 5-9 MD when filled with solution. An agar bridge with gluconate or Cl^− as the main anion (for oocyte and myocyte experiments, respectively) was used as ground electrode. After excision from the cell, the membrane patch was exposed to a stream of bath solution containing each agent at final concentration. Solutions were applied onto the patches using a pressurized system DAD12 (ALA Scientific Instruments, New York, N.Y., United States of America) via a micropipette tip with an internal diameter of 100 μm. Experiments were carried out at room temperature (21° C.).
Currents were recorded using an EPC8 amplifier (HEKA Electronics, Lambrecht/Pfalz, Germany) at 1 kHz using a low-pass, eight-pole Bessel filter 902LPF (Frequency Devices, Haverhill, Mass., United States of America). […]

Nc1ccncc1 [4-AP, 4-aminopyridine, reference compound]
Decrease in diameter [1]: −9.7±2.3%

C[C@]12CC[C@@H]3c4ccc(O)cc4CC[C@H]3[C@@H]1CC[C@@H]2O [17β-estradiol]
Concentrations modulating BK activity through the channel α-subunit (BK channels; Korovkina et al., 2004): 0.01 to 1 µM
Concentrations increasing BK (hslo) channel activity by interacting with the β1-subunit (BK channels; Valverde et al., 1999): 1 to 30 µM
Effect on channel activity (cbv1+β1 channels): channel activation

CC/C(=C(\c1ccccc1)c1ccc(OCCN(C)C)cc1)c1ccccc1 [tamoxifen, Tamoxifen]
Concentrations decreasing unitary current amplitude (as low as) (BK channels; Duncan, 2005): 1 to 10 µM
